Data from patent US20250213475A1, “LIPOSOMAL COMPOSITIONS” (R.G.C.C. Holdings AG, priority 2022, published 2025).

Columns and labels:
[1] = Encapsulation efficacy, indirect from free drug in supernatant by UV/VIS; format: physicochemical; settings: analogue 1 mg/mL
Experimental: At the end of the above encapsulation process, the solution was centrifuged at 15.000 rpm for 20 minutes and the supernatant was kept for indirect encapsulation determination. The precipitate was lyophilized and kept for further analysis and characterization.
The supernatants after each centrifugation were kept and used to evaluate the amount of the free drug. Subtracting the amount of the free drug at the supernatant from the total added drug, the rest is considered as encapsulated. Briefly, from each solution samples were collected in order to prepare solutions, which were then evaluated with UV/VIS spectrometry. Based on standard curves, in which the different nucleosides were measured in solution on a UV-VIS spectrometer, different the remaining quantity was calculated. The encapsulation efficacy was measured then based on the following equation:
[formula] Quantity of the Nucleoside Analogue in the liposome=(Quantity of the Nucleoside Analogue initially added−Quantity of the Nucleoside Analogue in the supernatant).
For example, for {[2-(6-amino-9H-purin-9-yl)quinazolin-4-yl]oxy}phosphonic acid system code 1, after the centrifugation, we keep the supernatant from which, a fraction is collected to prepare a solution with targeted concertation of 10 ppm. Based on the Dilution Equation, C1V1=C2V2, C1=1000, because we consider, at the initial solution that the concentration is 1000 ppm (based on the fact that all of the added nucleoside analogue would be in the supernatant) • C2: is the targeted concentration, here 10 ppm • V2: volume of the final solution, here 10 mL
Thus, we take 100 uL from the supernatant and we dilute it to 10 mL final volume. The sample is quantified by UV/VIS spectrometry and we calculate the actual concentration of the sample. The concentration is converted to mass and we can estimate the final mass of the nucleoside analogue in the supernatant and in the liposome.

[2] = test system: human colorectal carcinoma HCT116 cell line; assay: AlamarBlue cytotoxicity assay, HCT116; format: cell-based; settings: HCT116, 0.01 μM to 10 μM, 24 h, 48 h and 72 h
Experimental: (§1) All cell lines were maintained at 37° C. in a humidified 5% CO2 atmosphere. AlamarBlue assay was performed to assess cell viability. The viable cells were seeded at a density of 2×10^4 (200 μl/well) in 96-well plate and incubated at 37° C. and 5% CO2 for 24 h to form a cell monolayer. After 24 h of incubation, supernatant on the monolayer was aspirated and 200 μl of medium and varying concentrations of the substances were added and incubated for 24 h, 48 h and 72 h time points. […] Fluorescence was measured at 560 nm excitation and 590 nm emission wavelength. The experiment was performed in triplicates. The average fluorescence was calculated for each triplicate. One sample t-test was used to determine differences in the mean by comparing the treated samples with the untreated controls. P values <0.05 were considered to indicate a statistically significant difference.

[3] = test system: human breast adenocarcinoma (luminal type) MCF7 cell line; assay: AlamarBlue cytotoxicity assay, MCF7; format: cell-based; settings: MCF7, 0.01 μM to 10 μM, 24 h, 48 h and 72 h
Experimental: as §1

[4] = test system: human lung cancer COLO699N cell line; assay: AlamarBlue cytotoxicity assay, COLO699N; format: cell-based; settings: 0.01 μM to 10 μM, 24 h, 48 h and 72 h
Experimental: as §1

[5] = test system: human breast adenocarcinoma (triple negative) MDA-MB-231 cell line; assay: AlamarBlue cytotoxicity assay, MDA-MB-231; format: cell-based; settings: MDA-MB-231, 0.01 μM to 10 μM, 24 h, 48 h and 72 h
Experimental: The human breast adenocarcinoma (luminal type) MCF7 cell line (ECACC 86012803), human breast adenocarcinoma (triple negative) MDA-MB-231 cell line (ECACC 92020424), human colorectal carcinoma HCT116 cell line (ECACC 91091005) and human lung cancer COLO699N cell line (ECACC 93052608) were culture in RPMI 1640 medium Catalog #R0883 (Sigma-Aldrich, Darmstadt, Germany) supplemented with 10% fetal bovine serum Catalog #FB-1001/500 (BioSera, Nuaille, France) and 1% L-glutamine Catalog #G7513-100ML (Sigma-Aldrich, Darmstadt, Germany). All cell lines were maintained at 37° C. in a humidified 5% CO2 atmosphere. AlamarBlue assay was performed to assess cell viability. The viable cells were seeded at a density of 2×10^4 (200 μl/well) in 96-well plate and incubated at 37° C. and 5% CO2 for 24 h to form a cell monolayer. After 24 h of incubation, supernatant on the monolayer was aspirated and 200 μl of medium and varying concentrations of the substances were added and incubated for 24 h, 48 h and 72 h time points. […] Fluorescence was measured at 560 nm excitation and 590 nm emission wavelength. […] The average fluorescence was calculated for each triplicate. […] Results were calculated using the Microsoft Excel 2016. […]

[6] = liposomal system code 1, DSPE-PEG:CHOL:OA
[7] = liposomal system code 2, DSPE-PEG:CHOL
[8] = liposomal system code 3, DSPE-PEG:PC:CHOL
[9] = liposomal system code 4, DSPE-PEG:CHOL:OA:PC
[10] = liposomal system code 5, DSPE-PEG:OA

Structure (SMILES)	Encapsulation Efficacy (EE %) [1, 6]	Encapsulation Efficacy (EE %) [1, 7]	Encapsulation Efficacy (EE %) [1, 8]	Encapsulation Efficacy (EE %) [1, 9]	Encapsulation Efficacy (EE %) [1, 10]	cytotoxic effect (in words) [2]	cytotoxic effect (in words) [3]	cytotoxic effect (in words) [4]	cytotoxic effect (in words) [5]
Nc1ncnc2c1ncn2-c1nc(O)c2ccccc2n1 [2-(6-Amino-9H-purin-9-yl)quinazolin-4-ol, 2-(6-amino-9H-purin-9-yl)quinazolin-4-ol]	55.2%	55.2%	65.1%	54.4%	65.6%	no statistically significant cytotoxic effect	no statistically significant cytotoxic effect	no statistically significant cytotoxic effect	no statistically significant cytotoxic effect
Nc1ncnc2c1ncn2-c1nc(OP(=O)(O)O)c2ccccc2n1 [{[2-(6-amino-9H-purin-9-yl)quinazolin-4-yl]oxy}phosphonic acid]	60.8%	76.8%	50.0%	60.8%	70.4%				
Nc1ccn(-c2nc(O)c3ccccc3n2)c(=O)n1 [4-amino-1-(4-hydroxyquinazolin-2-yl)-1,2-dihydropyrimidin-2-one]		73.6%	76.2%						
CC(=O)Nc1ccn(-c2nc(O)c3ccccc3n2)c(=O)n1 [N-[1-(4-hydroxyquinazolin-2-yl)-2-oxo-1,2-dihydropyrimidin-4-yl]acetamide]		58.1%	89.9%						
